Measured values from US6358885B1, “Substituted phenylheterocyclic herbicides” (Mississippi State University, priority 1992, dated 2002).

How the values were obtained:
Assay in all cases: Test F preemergence/postemergence greenhouse plant response rating 0 to 100
[1] = test system: speedwell; format: in vivo, Veronica persica; settings: POSTEMERGENCE, 0 to 100 scale
Excerpt: (§1) Compounds evaluated in this test were formulated in a non-phytoxic solvent and applied to the soil surface before plant seedlings emerged (preemergence application) and to plants that were in the one-to-four leaf stage (postemergence application). A sandy loam soil was used for the preemergence test while a mixture of sandy loam soil and greenhouse potting mix in a 60:40 ratio was used for the postemergence test. Test compounds were applied within approximately one day after planting seeds for the preemergence test. Plantings of these crops and weed species were adjusted to produce plants of appropriate size for the postemergence test. All plant species were grown using normal greenhouse practices. Crop and weed species include winter barley (Hordeum vulgare cv. ‘Igri’), blackgrass (Alopecurus myosuroides), chickweed (Stellaria media), downy brome (Bromus tectorum), field violet (Viola arvensis), galium (Galium aparine), green foxtail (Setaria viridis), kochia (Kochia scoparia), lambsquarters (Chenopodium album), speedwell (Veronica persica), rape (Brassica napus), ryegrass (Lolium multiflorum), sugar beet (Beta vulgaris cv. ‘USl’), sunflower (Helianthus annuus cv. ‘Russian Giant’), spring wheat (Triticum aestivum cv. ‘ERA’), winter wheat (Triticum aestivum cv. ‘Talent’), wild buckwheat (Polygonum convolvulus), wild mustard (Sinapis arvensis), wild oat (Avena fatua), and wild radish (Raphanus raphanistrum). Blackgrass, galium and wild oat were treated at two growth stages. […] Treated plants and untreated controls were maintained in a greenhouse for approximately 21 to 28 days, after which all treated plants were compared to untreated controls and visually evaluated. […] A dash response (-) means no test result.

[2] = test system: sugar beet; format: in vivo, Beta vulgaris cv. ‘USl’; settings: POSTEMERGENCE, 0 to 100 scale
Excerpt: as §1

[3] = test system: green foxtail; format: in vivo, Setaria viridis; settings: POSTEMERGENCE, 0 to 100 scale
Excerpt: as §1

[4] = test system: wild buckwheat; format: in vivo, Polygonum convolvulus; settings: POSTEMERGENCE, 0 to 100 scale
Excerpt: as §1

[5] = test system: blackgrass; format: in vivo, Alopecurus myosuroides; settings: POSTEMERGENCE, 0 to 100 scale; for Blackgrass (1) plant response rating: stage (1) two to three leaves; for Blackgrass (2) plant response rating: stage (2) approximately four leaves or initial tillering
Excerpt: as §1

[6] = test system: rape; format: in vivo, Brassica napus; settings: POSTEMERGENCE, 0 to 100 scale
Excerpt: as §1

CCOC(=O)COc1cc(-c2nn3c(c2Cl)CCCC3)c(F)cc1Cl [Compound 42]
Persn Speedwell plant response rating ([1]; Rate 2 g/ha): 100
Persn Speedwell plant response rating ([1]; Rate 4 g/ha): 100
Persn Speedwell plant response rating ([1]; Rate 8 g/ha): 100
Persn Speedwell plant response rating ([1]; Rate 16 g/ha): 100
Persn Speedwell plant response rating ([1]; Rate 32 g/ha): 100
Sugar beet plant response rating ([2]; Rate 2 g/ha): 100
Sugar beet plant response rating ([2]; Rate 8 g/ha): 100
Sugar beet plant response rating ([2]; Rate 16 g/ha): 100
Sugar beet plant response rating ([2]; Rate 32 g/ha): 100
Green foxtail plant response rating ([3]; Rate 2 g/ha): 0
Green foxtail plant response rating ([3]; Rate 4 g/ha): 0
Green foxtail plant response rating ([3]; Rate 8 g/ha): 0
Green foxtail plant response rating ([3]; Rate 16 g/ha): 10
Green foxtail plant response rating ([3]; Rate 32 g/ha): 60
Wild buckwheat plant response rating ([4]; Rate 2 g/ha): 60
Wild buckwheat plant response rating ([4]; Rate 4 g/ha): 60
Wild buckwheat plant response rating ([4]; Rate 8 g/ha): 100
Wild buckwheat plant response rating ([4]; Rate 16 g/ha): 100
Blackgrass (1) plant response rating ([5]; Rate 2 g/ha): 0
Blackgrass (2) plant response rating ([5]; Rate 2 g/ha): 0
Blackgrass (1) plant response rating ([5]; Rate 4 g/ha): 0
Blackgrass (2) plant response rating ([5]; Rate 4 g/ha): 0
Blackgrass (1) plant response rating ([5]; Rate 8 g/ha): 0
Blackgrass (2) plant response rating ([5]; Rate 8 g/ha): 0
Blackgrass (1) plant response rating ([5]; Rate 16 g/ha): 0
Blackgrass (2) plant response rating ([5]; Rate 16 g/ha): 0
Blackgrass (1) plant response rating ([5]; Rate 32 g/ha): 0
Blackgrass (2) plant response rating ([5]; Rate 32 g/ha): 0
Rape plant response rating ([6]; Rate 2 g/ha): 0
Rape plant response rating ([6]; Rate 4 g/ha): 20
Rape plant response rating ([6]; Rate 8 g/ha): 40
Rape plant response rating ([6]; Rate 16 g/ha): 70
Rape plant response rating ([6]; Rate 32 g/ha): 100
